Measurements: patent publication US11124536B2, “Uridine nucleoside derivatives, compositions and methods of use” (Tufts University, priority 2013, dated 2021)
“Also recorded” adds a separate entry of the source.

Columns and labels:
[1] = molecular target: T1, P2Y6 receptor (Homo sapiens, UniProt Q15077); experiment: Activation of P2Y6 receptor: receptor-induced Ca2+ changes with fluo-4; assay type: cell-based
T1 construct: expressed in transfected cells; host or cells: 1321N1 human astrocytoma cells
Description: Synthetic ligands were tested for activation of P2Y6 receptor by measuring receptor induced Ca^2+ changes with the fluorescent Ca^2+ indicator fluo-4. 1321N1 human astrocytoma cell lines either expressing P2Y2, P2Y4 or P2Y6 receptors were plated into 24-well plates. Two days after plating, fluorometric measurements were made and responses of cells to a serial dilution of ligands were determined. P2Y6 receptor mediated Ca^2+ fluorescent change was determined by normalized accumulation of fluorescent change of 3 timepoints after ligand administration subtracted by value from ACSF control. Changes in fluorescent intensity were plotted corresponding to ligand concention in GraphPad. Dose-response curve and EC50 for each ligand was estimated using nonlinear curve fit and Sigmoidal dose-response analysis. […]
Synthetic ligands were tested for activation of P2Y6 receptor by measuring receptor induced Ca^2+ changes with the fluorescent Ca^2+ indicator fluo-4, and results are shown in FIG. 10(A)-(K). […] Two days after plating, fluorometric measurements were made and responses of cells to a serial dilution of ligands were determined. P2Y6 receptor mediated Ca^2+ fluorescent change was determined by normalized accumulation of fluorescent change of 3 timepoints after ligand administration subtracted by value from ACSF control. […]

[2] = tested on: PSAPP mice; experiment: Contextual fear conditioning test (freezing %); assay type: in vivo
Description: On day one, animals were trained in a fear conditioning apparatus for a total of 7 minutes with a two-pairing paradigm of cue and mild foot shock (a 30-s acoustic-conditioned stimulus, 80 dB; a 2-s shock stimulus, 0.5 mA). To evaluate contextual fear learning, the animals were returned to the training context 24 hours post-training, and freezing behavior was scored for 5 minutes. Freezing behavior was monitored by MotorMonitor (Hamilton Kinder) and scored every 5 seconds.
This represents a decrease in the cognitive impairment observed in the untreated mice.

[3] = tested on: PSAPP mice; experiment: Postmortem immunohistochemistry of amyloid beta plaque load in cortex and hippocampus; assay type: in vivo
Description: Mice were perfused transcardially with 4% paraformaldehyde and 40 μm Coronal sections were collected. Sections were sequentially incubated in 0.3% H2O2 for 10 minutes, blocking solution for 2 hrs, blocking solution containing the primary antibody (rabbit anti-beta1-42; rabbit anti-beta1-40, from Chemicon International and rat anti-CD45) for 48 hours at 4° C., and blocking solution containing biotinylated antibody or fluorescently-labeled antibody for 2 hours at room temperature. Sections were visualized in a bright field microscope or a confocal microscope, and the optical density was obtained using MetaMorph software.
To generate these graphs showing plaque load, mice were euthanized, brain sections cut and antibodies directed against Aβ 42 were used to disclose Aβ plaques. Images were acquired digitally and an algorithm was applied to threshold the image so that plaques were isolated from the background. The algorithm then calculated the percent area of the field of view occupied by the plaques.
Brain samples were collected for Abeta analysis with immunostaining. Brains samples were collected after transcardial perfusion with phosphate buffer and 4% paraformaldehyde. Floating brain sections (40 micron) were collected using a microtome. Immunostaining for Aβ40 and Aβ42 were performed according to previously established protocol. Images with DAB staining were collected with brightfield microscopy and analyzed with ImageJ Macro. All data analysis and statistics were performed in GraphPad Prism 6.0.

[4] = tested on: human THP-1 cells; experiment: Cytokine release from THP-1 cells into culture medium (multiplex cytokine analysis); assay type: cell-based
Description: THP-1 cells, a human cell line derived from monocytes, were treated in vitro with vehicle, the P2Y6 receptor antagonist MRS 2578, or compound 5, singly or in combination. THP-1 cells were seeded in 24 well plates at a density of 4×10^5 cells/well in culture medium for 24 hours. Thereafter, vehicle, compound 5, or MRS 2578 (singly or in combination) were added to the cultures for 24 hours. Subsequently the culture medium was aspirated and subjected to multiplex cytokine analysis. Data are presented as means+/−sem. MRS 2578 has a molecular weight of about 472 and is also described using CAS number 711019-86-2.

[5] = tested on: PSAPP mice; experiment: Two-photon in vivo imaging of methoxyX04-labeled amyloid plaques in barrel cortex; settings: UDP vs ACSF
Text: In this study, PSAPP mice were anesthetized using isoflurane and a thin-skull preparation was used to minimize the surface damage. Amyloid plaques were visualized with methoxyX04 labeling and blood plasma was labeled with Rhodamine dextran to facilitate re-localization of the same imaging area. Stack images were obtained using a two-photon system (Prairie Technologies) with excitation at 850 nm. The emission was detected by external photomultiplier tubes (525/70; DLCP 575; 607/45 nm).
Animals were anesthetized and immobilized in a stereotaxic frame. For each injection, 1 μl of 10 mM UDP or other suitable compounds in artificial cerebrospinal fluid (ACSF) as the vehicle were injected intraventricularly using the following coordinates: AP 0.2 mm, ML 1 mm, and DV 2.2 mm.
To evaluate the effect of UDP on plaque burden, two-photon microscopy was used to assess the amyloid plaques in the barrel cortex in living PSAPP mice. Amyloid plaques were stained by systemically administered methoxy-X04. One day prior to imaging, PSAPP mice were injected with methoxyX04 to label the amyloid plaques. On the imaging day, to facilitate the re-location of the same imaging area, blood plasma was labeled with Rhodamine dextran. Images were obtained from the same start- and end-point to ensure the same image volume. […]

[6] = tested on: PSAPP mice; experiment: Hippocampal long-term potentiation (LTP) recording, CA1; assay type: in vivo
Description: Hippocampal slices (350 μm thick) were prepared from 6-month-old PSAPP mice. Baseline responses were obtained every 10 seconds and Input-output (I/O) curves, paired-pulse modification and LTP were successively measured. The stimulation intensity was set to a level that gives a value of 30% of the maximum obtained. LTP were induced by high frequency stimulation (HFS, 100 pulses at 100 Hz, four times) or by theta-burst stimulation (TBS, 10 bursts at 5 Hz, repeated 10 times in 15 s intervals).
Accumulated evidence has shown that amyloid peptides naturally secreted or isolated from Alzheimer's brains impair synaptic plasticity, especially hippocampal long-term potentiation (Walsh et al., 2002). Therefore, we further performed LTP recordings in PASPP mice and investigated whether P2Y6 receptor-mediated plaque clearance affects synaptic plasticity. […] First, it was observed that LTP at the schaffer collateral synapse within the CA1 region was depressed in PSAPP mice, as compared with littermates (FIG. 8(A)).

T1 sequence (Q15077 whole entry): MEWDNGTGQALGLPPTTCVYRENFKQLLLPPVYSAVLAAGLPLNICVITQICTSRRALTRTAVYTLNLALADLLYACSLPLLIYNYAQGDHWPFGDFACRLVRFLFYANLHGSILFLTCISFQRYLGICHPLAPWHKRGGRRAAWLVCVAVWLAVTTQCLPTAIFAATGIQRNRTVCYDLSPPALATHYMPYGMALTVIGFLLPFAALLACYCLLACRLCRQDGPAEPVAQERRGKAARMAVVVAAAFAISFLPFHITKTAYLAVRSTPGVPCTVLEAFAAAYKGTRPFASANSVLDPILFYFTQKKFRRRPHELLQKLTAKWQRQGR

O=c1ccn([C@@H]2O[C@H](COP(=O)(O)OP(=O)(O)O)[C@@H](O)[C@H]2O)c(=O)n1Cc1noc2ccccc12
elevating Ca2+ levels in cells expressing P2Y6 receptors ([1]; 1321N1 human astrocytoma cells expressing P2Y6): only effective

O=C(Cn1c(=O)ccn([C@@H]2O[C@H](COP(=O)(O)OP(=O)(O)O)[C@@H](O)[C@H]2O)c1=O)c1ccccc1 [3-phenacyl-UDP, reference compound]
total freezing percentage in context test ([2]; chronic injection, two different doses): increased | memory deficit (contextual fear conditioning) compared to vehicle ([2]; one week treatment with 1 μg/kg, FIG. 9C): rescued the memory deficit | effects on the efficacy endpoint at the higher dose ([3]; 1 mg/kg, one week of daily treatment): smaller effects | β1-40 staining after treatment stopped ([3]; 6 consecutive days i.p. then stopped for 2 weeks (6+2 weeks group), level still lower than saline vehicle): rebounded | immunoreactivity of β1-40 in cortex ([3]; i.p. for 4 and 6 consecutive days, FIG. 6A): significantly decreased | immunoreactivity of β1-40 in hippocampus ([3]; i.p. for 4 and 6 consecutive days, FIG. 6B): significantly decreased

S=C=Nc1cccc(NC(=S)NCCCCNC(=S)Nc2cccc(N=C=S)c2)c1 [MRS 2578]
release of fractalkine, PDGF-BB, and IL-7 (concentration in culture medium) ([4]; 24 hours treatment vs vehicle, FIG. 25): increased | release of IL-7 from human THP-1 cells ([4]; MRS 2578 alone, 24 hours, FIG. 26): increased | effect of co-treatment on the decrease of IL-7/cytokine release caused by compound 5 ([4]; compound 5 plus MRS 2578, FIG. 26): blocked; also recorded: abrogated | effect of antagonist on Ca2+ signals elevated by the sodium salt of the diphosphate derivative of compound 5 ([1]; P2Y6 receptor expressing 1321N1 cells): attenuated

O=c1ccn([C@@H]2O[C@H](COP(=O)(O)OP(=O)(O)O)[C@@H](O)[C@H]2O)c(=O)[nH]1 [UDP, uridine diphosphate]
freezing behavior compared to ACSF treatment ([2]; UDP-treatment 3 days prior to the test, FIG. 7C): significantly improved | day 4/day 1 ratios of plaque load ([5]; FIG. 2D): significant reductions | number of plaques (day 4/day 1 ratios) ([5]; FIG. 2E): significant reductions | decrease in plaque load in the cortex, β1-42 antibody ([3]; acute UDP i.c.v., P<0.01): 48% | decrease in plaque load in the hippocampus, β1-42 antibody ([3]; acute UDP i.c.v., P<0.05): 47% | decrease in plaque load in the hippocampus, β1-40 antibody ([3]; acute UDP i.c.v., p<0.01): 62% | decrease in plaque load in the cortex, β1-40 antibody ([3]; acute UDP i.c.v., p<0.05): 60% | LTP deficit at schaffer collateral synapse, CA1 ([6]; acute UDP vs ACSF, HFS, FIG. 8B): reversed | field excitatory postsynaptic potential (fEPSP), last 15 min potentiation ([6]; acute UDP, comparable to littermates, FIG. 8C): significant increase
